Results taken from US20070275935A1, “Estratriene Derivatives” (priority 2003, published 2007).
Where two headings read alike, the source gives them in different places.

Columns and labels:
[1] = test system: Human airway smooth muscle (HASM) cells; assay: Thrombin-induced proliferation of human airway smooth muscle (HASM) cells, cell number after 48 h; assay type: cell-based; conditions: for IC50: Homo sapiens, read-out: HASM-Thr pIC50 (converted); for HASM- Thr pIC25 / HASM- Thr pIC75: two site model, thrombin-induced proliferation; for HASM- Thr pIC25: first phase (inhibition up to 50%); for HASM- Thr pIC75: second phase (inhibition up to 100%)
Description: Human airway smooth muscle (HASM) cells were cultured from macroscopically normal bronchi (0.5-2 cm diameter) obtained from lung resection or heart-lung transplant specimens provided by the Alfred Hospital (Melbourne) according to methods published in detail previously (Fernandes et al., 1999).
Approximately 0.1 g of smooth muscle was stripped from the wall of the bronchus for each cell culture. Dissected tissue was immersed in Dulbecco's modified Eagle's medium (DMEM) (Flow Laboratories, Scotland), supplemented with 100 U/mL penicillin G (CSL, Australia) and 100 ug/mL streptomycin (CSL, Australia). The tissue was rinsed in phosphate buffered saline (PBS; Oxoid, England) and the airway smooth muscle was chopped into 2 mm^3 pieces and digested for 2 hours in DMEM containing elastase (0.5 mg/mL: Worthington Biochemical, USA) followed by a 12 hour incubation in DMEM containing collagenase (1 mg/mL) (Worthington Biochemical, USA), at 37° C. with agitation.
The resulting cell suspension was centrifuged and washed three times in phosphate buffered saline (PBS). Following the last centrifugation step, the cells were resuspended in 25 mL of DMEM supplemented with L-glutamine (2 mM: Sigma, USA), penicillin G (100 U/mL), streptomycin (100 μg/mL), amphotericin B (2 μg/mL: Wellcome, UK) and heat-inactivated FCS (10% v/v: CSL, Australia) and seeded into 25 cm^2 culture flasks. The primary isolates were incubated for 7 to 14 days to reach confluence.
Cells were harvested weekly by 10 min exposure to trypsin (0.5%: CSL, Australia) and EDTA (1 mM in PBS: BDH, Australia) and passaged at a 1:3 ratio into 75 cm^2 flasks.
The activity of the compounds has been established in cell culture by exploring their effects on mitogen-induced increases in cell number. We investigated the effects of 2MEO and its analogues, 4NO and 4NOM, on the proliferation of HASM cells in response to the proliferative stimulus of either thrombin of basic fibroblast growth factor (bFGF). Cells were seeded onto 6-well plates at a density of 1.5×10^4 cells cm^2, made quiescent by removal of serum-containing media for 24 hours and then stimulated for 48 h with either thrombin (0.3 U/ml) or bFGF (300 pM). The test compounds were pre-incubated with HASM cells for 30 minutes before the addition of thrombin. At the end of the 48 hour incubation period, cells were detached from the culture plate by trypsin (0.5% w/v in PBS containing 1 mM EDTA), incubated for 5 minutes at ambient temperature in PBS containing 0.5% (w/v) trypan blue, washed twice (2% FCS in PBS), isolated by centrifugation (12,000×g, 5 min) and resuspended in 200 μl 2% FCS in PBS for counting in a haemocytometer chamber.
Data are expressed as a percentage of the cell number in vehicle treated wells and are presented as the mean and standard error of the mean.
The potency of the compounds in regulating thrombin-induced proliferation of human airway smooth muscle (HASM) was assessed in cells maintained in culture as described above. The potencies are presented as pIC50 values (Column A of Table 4) denoting the negative log of the concentration that reduces the proliferative response by 50%. […] When the single phase model was determined to be more appropriate, the values of pIC25 and pIC75 were not calculated or shown in the table.

[2] = test system: human breast tumour cell line, MCF7; assay: Proliferation of MCF7 cells in response to 5% FCS or EGF; assay type: cell-based; conditions: Homo sapiens, MCF7; proliferation in response to 5% FCS; pIC50 of 4.00 = inactive
Description: (§1) The effects of 4NO were evaluated in a number of non-smooth muscle cell types including the type II airway epithelial cell line, A549 (ATCC accession number ATCC CCL-185 Lung carcinoma human) (FIG. 2); the human breast tumour cell line, MCF7, (ATTC accession number ATCC HTB-22 breast adenocarcinoma, human) which expresses the estrogen receptor (FIG. 3); and in bovine aortic endothelial cells (BAEC) (FIG. 4).
(§2) The effects of test compounds were examined on proliferation of A549 cells in response to 5% fetal calf serum (FCS). Analogues were pre-incubated with A549 cells for 30 min before the addition of FCS. The incubation continued for 48 h before cell enumeration. Data are expressed as a percentage of the cell number in vehicle treated wells and are presented as the mean and standard error of the mean. Similarly the effects of 2MEO and 4NO on proliferation of MCF7 in response to 5% FCS or epidermal growth factor (EGF, 300 pM) were examined, as were the effects of 2MEO and 4NO on proliferation of BAEC in response to 5% FCS. The incubation parameters were the same as described above and results are presented as the mean and standard error of the mean.
(§3) This assay was also used to evaluate the ability of other compounds to inhibit the proliferation of non-smooth muscle cells MCF7 and A549 (described above) in response to 5% FCS. The results of this assay are presented in Table 4 (columns G and H respectively). The potency of the compounds was considerably less in inhibiting proliferation of these cell lines than it was for HASM. These observations support the contention that there are cell type-specific targets for the actions of these compounds. Such assays may also be adopted to examine the effect of other disclosed compounds on these cells or on other non-smooth muscle cells of interest.

Pulmonary fibroblasts = assay: bFGF-induced proliferation of human pulmonary fibroblasts; assay type: cell-based; conditions: inhibition of bFGF (300 pM)-induced proliferation, mean and SEM, minimum 3 experiments; 1 μM; * not defined
Description: Samples of parenchyma from human lung transplant recipients were dissected away from the pleura, chopped into fragments of less than 1 mm^2 and allowed to adhere to plastic culture dishes in a minimal volume of DMEM containing serum (10%) and antibiotics (as used for HASM culture). After the tissue fragments had adhered to the base of the dish additional medium was added. Medium was changed twice weekly until an explant culture formed, at which time the tissue fragments were removed and the cells were passaged in a 1:3 split ratio by exposure to trypsin weekly to produce pulmonary fibroblast cultures.
Pulmonary fibroblasts were cultured in DMEM, serum-deprived for 24 h, in the presence or absence of the test compounds, and then stimulated with 300 pM bFGF for 48 h before harvest and counting of viable cells. An increase pulmonary fibroblast cell number was prevented by 4NOM over the concentration range of 1 to 1000 nM.
A range of the disclosed compounds was subsequently examined using the above assay system, and the results are summarized in Column E of Table 4. […] The proliferation of parenchymal fibroblasts is important in the development of pulmonary fibrosis.

[3] = test system: type II airway epithelial cell line, A549; assay: Proliferation of A549 cells in response to 5% FCS; assay type: cell-based, human; conditions: Homo sapiens
Description: as §1, §2, §3

Estrogen Receptor (ER) = target: T1, Estrogen Receptor (ER) (Rattus norvegicus, UniProt P06211); assay: Estrogen receptor binding assay, 3H-estradiol displacement from rat uterine cytosol; conditions: 3H-estradiol displacement, cytosolic preparations of rat uterus; pIC50 of 4.00 = inactive; read-out: ER-RLB pIC50 (converted)
T1 construct: using rat uterine cytosol as a source of ER; from tissue; host or cells: rat uterus, cytosol fraction (30000 x g supernatant)
T1 sequence (P06211 1-600): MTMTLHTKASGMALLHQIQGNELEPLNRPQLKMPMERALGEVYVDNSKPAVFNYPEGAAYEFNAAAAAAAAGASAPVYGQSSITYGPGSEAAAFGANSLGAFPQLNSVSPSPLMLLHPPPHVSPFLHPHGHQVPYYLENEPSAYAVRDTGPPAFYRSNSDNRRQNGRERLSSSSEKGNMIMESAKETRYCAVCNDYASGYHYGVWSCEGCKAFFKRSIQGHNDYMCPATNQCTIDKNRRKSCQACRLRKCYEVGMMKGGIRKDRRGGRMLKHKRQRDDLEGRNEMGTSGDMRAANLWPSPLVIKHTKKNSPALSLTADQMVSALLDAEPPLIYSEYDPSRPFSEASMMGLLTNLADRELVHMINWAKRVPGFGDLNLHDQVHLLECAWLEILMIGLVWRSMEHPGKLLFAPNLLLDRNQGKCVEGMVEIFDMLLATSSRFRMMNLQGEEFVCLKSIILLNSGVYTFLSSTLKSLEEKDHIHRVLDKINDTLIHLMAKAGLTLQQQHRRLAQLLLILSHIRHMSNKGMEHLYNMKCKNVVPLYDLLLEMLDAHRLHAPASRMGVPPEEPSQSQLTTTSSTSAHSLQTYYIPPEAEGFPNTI
Description: Uteri (6-10 per batch) were isolated from Brown Norway rats (250-350g), washed free from blood in saline and homogenised in 10 mM Tris buffer (pH 7.4, 1.5 mM EDTA, 10% w/v glycerol, 1 mM phenylmethylsulfonylfluoride) using an Ultra Turrax homogeniser for 3 by 15 s bursts with intervals of 1 min on ice.
Nuclear material and cellular debris were removed by centrifugation at 750×g at 4° C. for 10 min (Sorvall RT7); the cytosol component was prepared by centrifugation at 30000×g for 120 min at 4° C. in a Beckman JM1 centrifuge. The cytosol was diluted to approximately 1 mg/ml protein (rat uterine extract) determined using the Bradford method (Biorad).
Separation of bound from free radioligand was achieved by the addition of 500 μL of dextran-coated charcoal (400 mg dextran clinical grade C and 2g of charcoal, Norit A in 100 mL of Tris buffer) and centrifugation at 4° C. in a Sorval RT7 at 2000×g for 10 min.

[4] = test system: GM-CSF production by Human Airway Smooth Muscle Cells; assay: Interleukin-1α-mediated GM-CSF production by HASM cells (ELISA); assay type: cell-based; conditions: inhibition of interleukin-1α (1 ng/ml)-mediated GM-CSF production; concentration not given; * not defined
[5] = negative log of the concentration that reduces the thrombin-induced proliferative response by 50%, pIC50 of 4.00 = inactive
[6] = A549, proliferation in response to 5% FCS, pIC50 of 4.00 = inactive, read-out: A549 PIC50 (converted)

Row | SMILES | IC50 [1, 5] | HASM- Thr pIC25 [1] | HASM- Thr pIC75 [1] | IC50 [2] | IC50 [1] | pFib - bFGF (Pulmonary fibroblasts) | IC50 ([3]; A549, read-out: A549 PIC50) | IC50 (Estrogen Receptor (ER)) | HASM - GM-CSF [4] | IC50 [3, 6]
1 | COc1cc2c(cc1O)CC[C@@H]1[C@@H]2CC[C@]2(C)/C(=N/OCc3cccc([N+](=O)[O-])c3)CC[C@@H]12 [CP-DM-3-104, 2-methoxyestrone-17-(3-nitrobenzyl)oxime] | 0.55 µM | 7.16 | 5.02 | 8.51 µM |  |  |  |  |  | 
2 | COc1cc2c(cc1O)/C(=N/Nc1ccc([N+](=O)[O-])cc1[N+](=O)[O-])C[C@@H]1[C@@H]2CC[C@]2(C)/C(=N/O)CC[C@@H]12 [CP-DM-3-119, 2-methoxy-6-(2,4-dinitrophenylhydrazono)estrone-17-oxime] |  |  |  |  | 3.31 µM | 17 ± 14 | 15.8 µM |  |  | 
3 | C[C@]12CC[C@@H]3c4ccc(O)cc4CC[C@H]3[C@@H]1CC/C2=N\OCc1ccc([N+](=O)[O-])cc1 [CP-DM-3-101, estrone-17-(4-nitrobenzyl)oxime] | 1.91 µM | 6.27 | 5.06 | 12.6 µM |  |  |  | 2.4 µM |  | 
4 | CO/N=C1\CC[C@H]2[C@@H]3C/C(=N\OCc4cc(F)cc(F)c4)c4cc(O)c(OC)cc4[C@H]3CC[C@]12C [CP-DM-4-74, 6-(3,5difluorobenzyloxy)imino-2-methoxyestrone-17-methyloxime] | 1.15 µM | 6.59 | 5.34 | 10 µM |  | 5 ± 9 |  |  | 11 ± 8 | 
5 | COc1ccc(CO/N=C2\CC[C@H]3[C@@H]4CCc5cc(O)ccc5[C@H]4CC[C@]23C)cc1 [CP-DM-4-33, estrone-17-(4-methoxybenzyl)oxime] | 1.35 µM | 7.12 | 5.03 | 3.16 µM |  |  |  | 0.11 µM |  | 9.12 µM
6 | COc1cc2c(cc1O)/C(=N/OCc1ccncc1)C[C@@H]1[C@@H]2CC[C@]2(C)/C(=N/O)CC[C@@H]12 [CP-DM-4-15, 2-methoxy-6-(4-pyridylmethyloxy)iminoestrone-17-oxime] | 3.39 µM |  |  | 10 µM |  |  |  | 12.6 µM | 34 ± 11* | 
7 | COc1ccc(CO/N=C2\C[C@@H]3[C@H](CC[C@]4(C)/C(=N/O)CC[C@@H]34)c3cc(OC)c(O)cc32)cc1 [CP-DM-4-6, 2-methoxy-6-(4-methoxybenzyloxy)-iminoestrone-17-oxime] | 0.117 µM | 9.57 | 4.94 | 2.29 µM |  |  |  | 45.7 µM | 28 ± 10* | 7.76 µM
8 | COc1ccc(CON=C2CCC3C4CCc5cc(O)c(OC)cc5C4CCC23C)cc1 (centres unmarked) [CP-DM-4-34, 2-methoxyestrone-17-(4-methoxybenzyl)oxime] |  | 4.00 | 4.00 | 4.07 µM |  |  |  | 40.7 µM | 29 ± 12 | 2.14 µM
